System: MV-4-11 cells
Experiment: Gene expression microarray analysis (Affymetrix PrimeView) and GSEA
Assay type: cell-based, human
Parameters: RFU PODN (11730768_x_at) / Fold change /veh PODN (11730768_x_at) / RFU LINC00158 (11744669_a_at) / Fold change /veh LINC00158 (11744669_a_at) / RFU DUSP10 (11751237_a_at) / Fold change /veh DUSP10 (11751237_a_at) / RFU ID3 (11757404_x_at) / Fold change /veh ID3 (11757404_x_at) / RFU PLEKHG5 (11737974_s_at) / Fold change /veh PLEKHG5 (11737974_s_at) / RFU LRRC4B (11730491_at) / Fold change /veh LRRC4B (11730491_at) / RFU GIMAP4 (11747438_a_at) / Fold change /veh GIMAP4 (11747438_a_at) / RFU KRT8 (11758183_x_at) / Fold change /veh KRT8 (11758183_x_at) / RFU CNN1 (11734310_a_at) / Fold change /veh CNN1 (11734310_a_at) / RFU VPS37D (11726825_at) / Fold change /veh VPS37D (11726825_at) / RFU C10orf10 (11716522_x_at) / Fold change /veh C10orf10 (11716522_x_at) / RFU KIR2DL2 /// KIR2DL4 /// KIR2DL5A /// KIR2DL5B /// KIR2DS1 /// KIR2DS2 /// KIR2DS3 /// KIR2DS4 /// KIR3DL3 /// KIR3DL3 /// KIR3DS1 (11738374_at) / Fold change /veh KIR2DL2 /// KIR2DL4 /// KIR2DL5A /// KIR2DL5B /// KIR2DS1 /// KIR2DS2 /// KIR2DS3 /// KIR2DS4 /// KIR3DL3 /// KIR3DL3 /// KIR3DS1 (11738374_at) / RFU C1QL1 (11718748_at) / Fold change /veh C1QL1 (11718748_at) / RFU TMPRSS4 (11747572_a_at) / Fold change /veh TMPRSS4 (11747572_a_at) / RFU HAMP (11756126_x_at) / Fold change /veh HAMP (11756126_x_at) / RFU RNFT2 (11725882_a_at) / Fold change /veh RNFT2 (11725882_a_at) / RFU NR4A2 (11747474_a_at) / Fold change /veh NR4A2 (11747474_a_at) / RFU ABCC12 (11746883_a_at) / Fold change /veh ABCC12 (11746883_a_at) / RFU TMEM136 (11760407_x_at) / Fold change /veh TMEM136 (11760407_x_at) / RFU CLDN22 /// WWC2 (11732394_at) / Fold change /veh CLDN22 /// WWC2 (11732394_at) / RFU HLA-DPB1 (11760878_x_at) / Fold change /veh HLA-DPB1 (11760878_x_at) / RFU SPINT1 (11716480_a_at) / Fold change /veh SPINT1 (11716480_a_at) / RFU GAP43 (11754022_s_at) / Fold change /veh GAP43 (11754022_s_at) / RFU A4GNT (11735810_at) / Fold change /veh A4GNT (11735810_at) / RFU PRB3 (11715151_x_at) / Fold change /veh PRB3 (11715151_x_at) / RFU TUBB4B (11761932_at) / Fold change /veh TUBB4B (11761932_at) / RFU CAPN14 (11732068_a_at) / Fold change /veh CAPN14 (11732068_a_at) / RFU TMCC2 (11721928_a_at) / Fold change /veh TMCC2 (11721928_a_at) / RFU IRGQ (11745062_a_at) / Fold change /veh IRGQ (11745062_a_at) / RFU FAM174B (11720279_a_at) / Fold change /veh FAM174B (11720279_a_at) / RFU TMPRSS4 (11748680_a_at) / Fold change /veh TMPRSS4 (11748680_a_at) / RFU FAM212B (11763350_a_at) / Fold change /veh FAM212B (11763350_a_at) / RFU PLEKHG5 (11743358_a_at) / Fold change /veh PLEKHG5 (11743358_a_at) / RFU ZSCAN30 (11745921_a_at) / Fold change /veh ZSCAN30 (11745921_a_at) / RFU CMKLR1 (11741424_a_at) / Fold change /veh CMKLR1 (11741424_a_at) / RFU LOC101060620 /// MAPK8IP1 (11723275_at) / Fold change /veh LOC101060620 /// MAPK8IP1 (11723275_at) / RFU SPTSSB (11747773_x_at) / Fold change /veh SPTSSB (11747773_x_at) / RFU PRSS12 (11739890_at) / Fold change /veh PRSS12 (11739890_at) / RFU BIN1 (11741810_x_at) / Fold change /veh BIN1 (11741810_x_at) / RFU WNT11 (11732464_a_at) / Fold change /veh WNT11 (11732464_a_at) / RFU C10orf10 (11716521_a_at) / Fold change /veh C10orf10 (11716521_a_at) / RFU C5orf56 (11738089_at) / Fold change /veh C5orf56 (11738089_at) / RFU CYB561 (11721691_x_at) / Fold change /veh CYB561 (11721691_x_at) / RFU ANKRD19P (11752326_a_at) / Fold change /veh ANKRD19P (11752326_a_at) / RFU OR2T12 /// OR2T33 /// OR2T8 (11738714_s_at) / Fold change /veh OR2T12 /// OR2T33 /// OR2T8 (11738714_s_at) / RFU VCAN (11748164_a_at) / Fold change /veh VCAN (11748164_a_at) / RFU JSRP1 (11732532_at) / Fold change /veh JSRP1 (11732532_at) / RFU KRTAP10-11 (11738290_x_at) / Fold change /veh KRTAP10-11 (11738290_x_at) / RFU MYO3A (11730013_a_at) / Fold change /veh MYO3A (11730013_a_at) / RFU EBF3 (11725865_a_at) / Fold change /veh EBF3 (11725865_a_at) / RFU CAMK2N1 (11719241_x_at) / Fold change /veh CAMK2N1 (11719241_x_at) / RFU C5orf56 (11738088_a_at) / Fold change /veh C5orf56 (11738088_a_at) / RFU OLFML3 (11715873_a_at) / Fold change /veh OLFML3 (11715873_a_at) / RFU LOC100653217 /// NTM (11731650_a_at) / Fold change /veh LOC100653217 /// NTM (11731650_a_at) / RFU MAPK11 (11762145_a_at) / Fold change /veh MAPK11 (11762145_a_at) / RFU FIZ1 (11724087_x_at) / Fold change /veh FIZ1 (11724087_x_at) / RFU OASL (11726364_x_at) / Fold change /veh OASL (11726364_x_at) / RFU SOX15 (11748057_x_at) / Fold change /veh SOX15 (11748057_x_at) / RFU CD79A (11719716_a_at) / Fold change /veh CD79A (11719716_a_at) / RFU HIST1H1D (11736915_at) / Fold change /veh HIST1H1D (11736915_at) / RFU CASKIN2 (11723855_a_at) / Fold change /veh CASKIN2 (11723855_a_at) / RFU LOC730098 (11760151_x_at) / Fold change /veh LOC730098 (11760151_x_at) / RFU OR4N2 (11742367_at) / Fold change /veh OR4N2 (11742367_at) / RFU PRRT2 (11749266_a_at) / Fold change /veh PRRT2 (11749266_a_at) / RFU SNX32 (11753110_a_at) / Fold change /veh SNX32 (11753110_a_at) / RFU CDHR5 (11726645_a_at) / Fold change /veh CDHR5 (11726645_a_at) / RFU RCAN1 (11760418_a_at) / Fold change /veh RCAN1 (11760418_a_at) / RFU FAM167A (11723789_a_at) / Fold change /veh FAM167A (11723789_a_at) / RFU FAM26E (11764081_at) / Fold change /veh FAM26E (11764081_at) / RFU ISYNA1 (11749810_s_at) / Fold change /veh ISYNA1 (11749810_s_at) / RFU ACY1 (11761880_at) / Fold change /veh ACY1 (11761880_at) / RFU 11764098_at / Fold change /veh 11764098_at / RFU SAMD14 (11745864_x_at) / Fold change /veh SAMD14 (11745864_x_at) / RFU NPB (11741838_a_at) / Fold change /veh NPB (11741838_a_at) / RFU TMPRSS6 (11731388_a_at) / Fold change /veh TMPRSS6 (11731388_a_at) / RFU KRTAP10-2 (11738614_at) / Fold change /veh KRTAP10-2 (11738614_at) / RFU ARHGAP8 /// PRR5-ARHGAP8 (11727945_x_at) / Fold change /veh ARHGAP8 /// PRR5-ARHGAP8 (11727945_x_at) / RFU KRTAP5-7 /// NADSYN1 (11734609_at) / Fold change /veh KRTAP5-7 /// NADSYN1 (11734609_at) / RFU RASL12 (11751679_a_at) / Fold change /veh RASL12 (11751679_a_at) / RFU CDKN2B (11736163_a_at) / Fold change /veh CDKN2B (11736163_a_at) / RFU PRF1 (11729649_at) / Fold change /veh PRF1 (11729649_at) / RFU, ZNF638 /// ZNF638-IT1 / Fold change vs veh, ZNF638 /// ZNF638-IT1 / RFU, PANK3 / Fold change vs veh, PANK3 / RFU, SH3YL1 / Fold change vs veh, SH3YL1 / RFU, ZEB2 / Fold change vs veh, ZEB2 / RFU, NRIP1 / Fold change vs veh, NRIP1 / RFU, PTTG1IP / Fold change vs veh, PTTG1IP / RFU, CAPN2 / Fold change vs veh, CAPN2 / RFU, MED14 / Fold change vs veh, MED14 / RFU, SNORA58 / Fold change vs veh, SNORA58 / RFU, C1orf63 / Fold change vs veh, C1orf63 / RFU, LRRFIP1 / Fold change vs veh, LRRFIP1 / RFU, NDUFAF7 / Fold change vs veh, NDUFAF7 / RFU, SLC12A2 / Fold change vs veh, SLC12A2 / RFU, IBTK / Fold change vs veh, IBTK / RFU, ESF1 / Fold change vs veh, ESF1 / Fold change vs veh, TMEM50B / RFU, TAOK1 / Fold change vs veh, TAOK1 / RFU, ACBD3 / Fold change vs veh, ACBD3 / RFU, TMA16 / Fold change vs veh, TMA16 / RFU, RWDD3 / Fold change vs veh, RWDD3 / RFU, BCAT1 / Fold change vs veh, BCAT1 / RFU, EDEM3 / Fold change vs veh, EDEM3 / RFU, TMEM33 / Fold change vs veh, TMEM33 / RFU, WDR75 / Fold change vs veh, WDR75 / RFU, AHCTF1 / Fold change vs veh, AHCTF1 / RFU, TFRC / Fold change vs veh, TFRC / RFU, ZDHHC17 / Fold change vs veh, ZDHHC17 / RFU, NOM1 / Fold change vs veh, NOM1 / RFU, ARL8B / Fold change vs veh, ARL8B / RFU, ZBTB11 / Fold change vs veh, ZBTB11 / RFU, TAMM41 / Fold change vs veh, TAMM41 / RFU, KIAA1704 /// LOC100996395 / Fold change vs veh, KIAA1704 /// LOC100996395 / RFU, ING1 / Fold change vs veh, ING1 / RFU, TRMT61B / Fold change vs veh, TRMT61B / RFU, FUBP3 / Fold change vs veh, FUBP3 / RFU, TP53 / Fold change vs veh, TP53 / RFU, TNKS2 / Fold change vs veh, TNKS2 / RFU, ZFP14 / Fold change vs veh, ZFP14 / RFU, ACTR2 / Fold change vs veh, ACTR2 / RFU, PPP3R1 / Fold change vs veh, PPP3R1 / RFU, PIK3R1 / Fold change vs veh, PIK3R1 / RFU, HNRNPA1 / Fold change vs veh, HNRNPA1 / RFU, RNF170 / Fold change vs veh, RNF170 / RFU, ZNF28 / Fold change vs veh, ZNF28 / RFU, RNGTT / Fold change vs veh, RNGTT / RFU, OGT / Fold change vs veh, OGT / RFU, BRD1 / Fold change vs veh, BRD1 / RFU, MARS / Fold change vs veh, MARS / RFU, ZNF655 / Fold change vs veh, ZNF655 / RFU, FAHD1 / Fold change vs veh, FAHD1 / RFU, BDP1 / Fold change vs veh, BDP1 / RFU, LRRCC1 / Fold change vs veh, LRRCC1 / RFU, ARID1A / Fold change vs veh, ARID1A / RFU, ZNF146 / Fold change vs veh, ZNF146 / RFU, ZNF330 / Fold change vs veh, ZNF330 / RFU, GPN3 / Fold change vs veh, GPN3 / RFU, C9orf123 / Fold change vs veh, C9orf123 / RFU, N4BP2L2 / Fold change vs veh, N4BP2L2 / RFU, ARFIP1 / Fold change vs veh, ARFIP1 / RFU, FAM179B / Fold change vs veh, FAM179B / RFU, BCL10 / Fold change vs veh, BCL10 / RFU, UHRF1BP1L / Fold change vs veh, UHRF1BP1L / RFU, BET1 / Fold change vs veh, BET1 / RFU, CNOT2 / Fold change vs veh, CNOT2 / RFU, ZNF268 / Fold change vs veh, ZNF268 / Fold change vs veh, ZNF507 / RFU, DGCR2 / Fold change vs veh, DGCR2 / RFU, WDSUB1 / Fold change vs veh, WDSUB1 / Fold change vs veh, HSP90B1 /// MIR3652 / RFU, ADSS / Fold change vs veh, ADSS / RFU, GK / Fold change vs veh, GK / RFU, ZNF148 / Fold change vs veh, ZNF148 / RFU, TAF9 / Fold change vs veh, TAF9 / RFU, SLC1A5 / Fold change vs veh, SLC1A5 / RFU, SLMO2 / Fold change vs veh, SLMO2 / RFU, ABCC4 / Fold change vs veh, ABCC4 / RFU, LOC101060439 /// RAP1B / Fold change vs veh, LOC101060439 /// RAP1B / RFU, RFX7 / Fold change vs veh, RFX7 / RFU, GTPBP10 / Fold change vs veh, GTPBP10 / RFU, CNEP1R1 / Fold change vs veh, CNEP1R1 / RFU, BIVM-ERCC5 /// ERCC5 / Fold change vs veh, BIVM-ERCC5 /// ERCC5 / RFU, ILF3 / Fold change vs veh, ILF3 / RFU 11762660_at / Fold change /veh 11762660_at / RFU VCAN (11757783_s_at) / Fold change /veh VCAN (11757783_s_at) / RFU DDX43 (11728927_at) / Fold change /veh DDX43 (11728927_at) / RFU KRT8 (11758188_x_at) / Fold change /veh KRT8 (11758188_x_at) / RFU NKD1 (11759106_at) / Fold change /veh NKD1 (11759106_at) / RFU SRD5A1 (11742802_a_at) / Fold change /veh SRD5A1 (11742802_a_at) / RFU TPSAB1 /// TPSB2 (11721975_s_at) / Fold change /veh TPSAB1 /// TPSB2 (11721975_s_at) / RFU GSTM3 (11746129_a_at) / Fold change /veh GSTM3 (11746129_a_at) / RFU IL23R (11737362_x_at) / Fold change /veh IL23R (11737362_x_at) / RFU TMEM51 (11727254_a_at) / Fold change /veh TMEM51 (11727254_a_at) / RFU PIWIL2 (11732686_x_at) / Fold change /veh PIWIL2 (11732686_x_at) / RFU ORM1 (11744905_x_at) / Fold change /veh ORM1 (11744905_x_at) / RFU CCDC152 (11743942_at) / Fold change /veh CCDC152 (11743942_at) / RFU ECM1 (11717891_a_at) / Fold change /veh ECM1 (11717891_a_at) / RFU IL23R (11748794_a_at) / Fold change /veh IL23R (11748794_a_at) / RFU TNFAIP8L3 (11732012_x_at) / Fold change /veh TNFAIP8L3 (11732012_x_at) / RFU MBOAT4 (11741988_at) / Fold change /veh MBOAT4 (11741988_at) / RFU 11764193_at / Fold change /veh 11764193_at / RFU TMEM53 (11763286_at) / Fold change /veh TMEM53 (11763286_at) / RFU MAGEB2 (11727129_at) / Fold change /veh MAGEB2 (11727129_at) / RFU TMEM200A (11744735_a_at) / Fold change /veh TMEM200A (11744735_a_at) / RFU CCDC152 (11751479_a_at) / Fold change /veh CCDC152 (11751479_a_at) / RFU FAM211A (11726209_a_at) / Fold change /veh FAM211A (11726209_a_at) / RFU RGS16 (11746705_a_at) / Fold change /veh RGS16 (11746705_a_at) / RFU VCAN (11755009_s_at) / Fold change /veh VCAN (11755009_s_at) / RFU RHOB (11743442_s_at) / Fold change /veh RHOB (11743442_s_at) / RFU RGS16 (11720943_a_at) / Fold change /veh RGS16 (11720943_a_at) / RFU RGS16 (11720944_at) / Fold change /veh RGS16 (11720944_at) / RFU, VPS4B / Fold change vs veh, VPS4B / RFU, CREB1 / Fold change vs veh, CREB1 / RFU, DNAJC13 / Fold change vs veh, DNAJC13 / RFU, GNAQ / Fold change vs veh, GNAQ / RFU, CDK5R1 / Fold change vs veh, CDK5R1 / RFU, ZRANB3 / Fold change vs veh, ZRANB3 / RFU, CUL4A / Fold change vs veh, CUL4A / RFU, CCNY / Fold change vs veh, CCNY / RFU, UFL1 / Fold change vs veh, UFL1 / RFU, COG3 / Fold change vs veh, COG3 / RFU, DIAPH2 / Fold change vs veh, DIAPH2 / RFU, SKA2 / Fold change vs veh, SKA2 / RFU, AFF3 / Fold change vs veh, AFF3 / RFU, LMF1 / Fold change vs veh, LMF1 / RFU, IPO11 / Fold change vs veh, IPO11 / RFU, DFFB / Fold change vs veh, DFFB / RFU, FOXP1 / Fold change vs veh, FOXP1 / RFU, CARD8 / Fold change vs veh, CARD8 / RFU, STRN3 / Fold change vs veh, STRN3 / RFU, ADK / Fold change vs veh, ADK / RFU, RASSF2 / Fold change vs veh, RASSF2 / RFU, WIPF1 / Fold change vs veh, WIPF1 / RFU, LARP1B / Fold change vs veh, LARP1B / RFU, RASA1 / Fold change vs veh, RASA1 / RFU, RB1 / Fold change vs veh, RB1 / RFU, PPFIA1 / Fold change vs veh, PPFIA1 / RFU, MAT2A / Fold change vs veh, MAT2A / RFU, CCT5 / Fold change vs veh, CCT5 / RFU, WDR92 / Fold change vs veh, WDR92 / RFU, CUX1 / Fold change vs veh, CUX1 / RFU, TTC7A / Fold change vs veh, TTC7A / RFU, TMEM135 / Fold change vs veh, TMEM135 / RFU, DEPTOR / Fold change vs veh, DEPTOR / RFU, CPM / Fold change vs veh, CPM / RFU, DNAJB6 / Fold change vs veh, DNAJB6 / RFU, CACNA2D3 / Fold change vs veh, CACNA2D3 / RFU, DTX4 / Fold change vs veh, DTX4 / RFU, TFCP2 / Fold change vs veh, TFCP2 / RFU, GMCL1 /// GMCL1P1 / Fold change vs veh, GMCL1 /// GMCL1P1 / RFU, AEBP2 / Fold change vs veh, AEBP2 / RFU, SNHG1 /// SNORD22 /// SNORD25 /// SNORD26 /// SNORD27 /// SNORD28 /// SNORD29 /// SNORD31 / Fold change vs veh, SNHG1 /// SNORD22 /// SNORD25 /// SNORD26 /// SNORD27 /// SNORD28 /// SNORD29 /// SNORD31 / Fold change (Aza/veh), C12orf56 (ProbeSet 11735607_a_at) / Fold change (ACY-1035/veh), C12orf56 (ProbeSet 11735607_a_at) / Fold change (Aza/veh), FGFR1OP (ProbeSet 11751329_s_at) / Fold change (ACY-1035/veh), FGFR1OP (ProbeSet 11751329_s_at) / Fold change (Aza/veh), VPS36 (ProbeSet 11739960_a_at) / Fold change (ACY-1035/veh), VPS36 (ProbeSet 11739960_a_at) / RFU SYPL1 (11715823_x_at) / Fold change /veh SYPL1 (11715823_x_at) / RFU IGFBP7 (11715501_s_at) / Fold change /veh IGFBP7 (11715501_s_at) / RFU REEP3 (11722064_at) / Fold change /veh REEP3 (11722064_at) / RFU IGLL1 (11728026_x_at) / Fold change /veh IGLL1 (11728026_x_at): dose or concentration left out as unconfirmed
Details: MV-4-11 cells, 48 hours

For `Nc1ccc(-c2cccs2)cc1NC(=O)c1ccc2c(c1)cc(C1CC1)n2CCN1CCOCC1` [ACY-1035], which “Fold change /veh TUBB4B (11761932_at)” value is on record?
Its value is 1.03.

— publication PMC5218480 (PLoS ONE, 2017)
